According to patent US20090324500A1, “SCREEN FOR INFLAMMATORY RESPONSE MODULATORS” (priority 2006, published 2009):

Test system: neutrophils
Experiment: Tail transection injury in transgenic MPO:GFP zebrafish larvae, neutrophil counts at the site of injury
Assay type: in vivo
Source text: AB strain zebrafish from existing aquarium stocks were maintained according to standard protocols. A BAC containing approx 130 kB of 5′ promoter sequence to the MPO gene was identified (zC91B8). This BAC was modified to contain an in-frame GFP sequence beginning at the translation start site of the MPO gene by recombinase activity as previously described (Lee, E. C. et al (2001) Genomics 73, 56-65). EL250 cells required for the recombination step were a kind gift of Dr. Neal Copeland, National Cancer Institute, Frederick, […]., USA. Insertion of the GFP sequence was confirmed by co-insertion of a kanamycin resistance gene, which in turn was flanked by FRT sites leading to its easy removal before introduction into the zebrafish. As part of this process a vector was created consisting of a truncated portion of the Bluescript vector, into which we had blunt cloned a construct consisting of GFP and the FRT-flanked Kanamycin resistance gene, all of which was flanked by MPO homology arms. Using this construct, we were able to add a Nuclear Localising Sequence corresponding to that used in the Clontech vector pEYFPnuc by PCR and self ligation.
The modified BACs were injected into fertilised AB zebrafish embryos at the 1-2 cell stage, and larvae screened at 36-48 hours for the presence of fluorescence. Fluorescent larvae were grown to maturity and either in- or out-crossed to identify germ cell carriage of the transgene.
A BAC containing over 100 kb of sequence 5′ to the Zebrafish MPO promoter was identified and modified to contain an in frame GFP sequence (FIG. 3). This was then injected into zebrafish embryos at the 1-cell stage and a transgenic line created. GFP expression recapitulates the expression of myeloperoxidase in cells whose morphology is consistent with neutrophil granulocytes (see FIG. 4). When these fish are injured, neutrophils accumulate at the site of injury over time (FIGS. 5 and 6).
Neutrophil number at the site of injury following tail transection can be assessed either by manual counting (FIG. 7a) or by automated image analysis (FIG. 7b).
Manipulation of the inflammatory response in transgenic zebrafish has been performed exemplifying the role of manipulation of granulocyte apoptosis in regulating the resolution of inflammation. […] P<0.05 for t=24, zVD.fmk treated vs all other groups (1 way ANOVA with Bonferroni post test correction).
In FIG. 8b counts of fluorescent cells in individual larvae were performed for fish in the presence or absence of the bacterial product Lipopolysaccharide (LPS). LPS was added at 6 hours post injury (hpi), and counts made at 6 and 24 hpi. […] In FIG. 8c, Pyocyanin (a bacterial pigment with pro-apoptotic effects on neutrophils) was added at 4 hpi, and counts made at 8 hpi.

## Cn1c2cccc(=O)c-2nc2ccccc21 [Pyocyanin]
Added at 4 hpi, counts at 8 hpi, FIG. 8c
  absolute cell counts (neutrophil numbers): reduce neutrophil numbers

## CC(C)[C@H](NC(=O)OCc1ccccc1)C(=O)NC(CC(=O)O)C(=O)CF (stereo partly shown) [zVD.fmk]
Between 6 hours and 24 hours after injury, FIG. 8a, P<0.05 at t=24 vs all other groups
  neutrophil numbers at the inflammatory site (resolution of inflammation): persistence of neutrophil numbers
Transgenic zebrafish, FIG. 8a
  effect on granulocyte apoptosis: delays apoptosis

## Lipopolysaccharide [LPS]
Added at 6 hpi, counts at 6 and 24 hpi, vs untreated fish, p<0.05, FIG. 8b
  % reduction in neutrophil numbers: significantly lower
